Compound | logP
C[C@]12C[C@H](O)[C@H]3[C@@H](CCC4=CC(=O)CC[C@@]43C)[C@@H]1CC[C@@H]2C(=O)CO | 2.06
CCCCC(=O)OCC(=O)[C@@]1(O)CC[C@H]2[C@@H]3CCC4=CC(=O)CC[C@]4(C)[C@H]3[C@@H](O)C[C@@]21C | 3.62
CCCCC(=O)O[C@]1(C(=O)CO)CC[C@H]2[C@@H]3CCC4=CC(=O)C=C[C@]4(C)[C@H]3[C@@H](O)C[C@@]21C | 3.82
CCCC(=O)O[C@]1(C(=O)CO)CC[C@H]2[C@@H]3CCC4=CC(=O)CC[C@]4(C)[C@H]3[C@@H](O)C[C@@]21C | 3.18
CCCCC(=O)O[C@]1(C(=O)CO)CC[C@H]2[C@@H]3CCC4=CC(=O)CC[C@]4(C)[C@H]3[C@@H](O)C[C@@]21C | 3.79
CC(=O)O[C@]1(C(=O)CO)CC[C@H]2[C@@H]3CCC4=CC(=O)CC[C@]4(C)[C@H]3C(=O)C[C@@]21C | 2.45
CCC(=O)O[C@]1(C(=O)CCl)[C@@H](C)C[C@H]2[C@@H]3CCC4=CC(=O)C=C[C@]4(C)[C@@]3(F)C(=O)C[C@@]21C | 3.46
CCCC(=O)O[C@]1(C(=O)CCl)[C@@H](C)C[C@H]2[C@@H]3CCC4=CC(=O)C=C[C@]4(C)[C@@]3(F)C(=O)C[C@@]21C | 3.76
CCC(=O)OCC(=O)[C@@]1(O)CC[C@H]2[C@@H]3CCC4=CC(=O)CC[C@]4(C)[C@H]3[C@@H](O)C[C@@]21C | 2.8
CCC(=O)O[C@]1(C(=O)CO)CC[C@H]2[C@@H]3CCC4=CC(=O)CC[C@]4(C)[C@H]3[C@@H](O)C[C@@]21C | 2.7
CCC(=O)O[C@]1(C(=O)CCl)[C@@H](C)C[C@H]2[C@@H]3CCC4=CC(=O)C=C[C@]4(C)[C@H]3C(=O)C[C@@]21C | 3.3
CCC(=O)O[C@]1(C(=O)CCl)[C@@H](C)C[C@H]2[C@@H]3CCC4=CC(=O)C=C[C@]4(C)[C@H]3[C@@H](O)C[C@@]21C | 3.34
CC(=O)OC1(C(=O)CO)CCC2C3CCC4=CC(=O)C=CC4(C)C3C(=O)CC21C (centres undefined) | 2.43
C[C@]12C=CC(=O)C=C1CC[C@@H]1[C@@H]2[C@@H](O)C[C@@]2(C)[C@H]1CC[C@]2(O)C(=O)CO | 1.58
CCCC(=O)OCC(=O)[C@@]1(O)CCC2C3CCC4=CC(=O)CC[C@]4(C)C3C(O)C[C@@]21C (some centres undefined) | 2.91
CC12CCC(=O)C=C1CCC1C3CCC(O)(C(=O)CO)C3(C)CC(=O)C12F (centres undefined) | 1.37

Continued, values first:

logP | Compound
3.28 | CCC(=O)O[C@]1(C(=O)CCl)[C@@H](C)C[C@H]2[C@@H]3CCC4=CC(=O)C=C[C@]4(C)[C@@]3(Cl)[C@@H](O)C[C@@]21C
3.09 | CCC(=O)O[C@]1(C(C)=O)[C@@H](C)C[C@H]2[C@@H]3CCC4=CC(=O)C=C[C@]4(C)[C@@]3(F)C(=O)C[C@@]21C
5.26 | CCCCC(=O)OCC(=O)[C@@]1(OC(=O)CCCC)[C@@H](C)C[C@H]2[C@@H]3CCC4=CC(=O)C=C[C@]4(C)[C@@]3(F)[C@@H](O)C[C@@]21C
3.18 | CCC(=O)O[C@]1(C(=O)CCl)[C@@H](C)C[C@H]2[C@@H]3CCC4=CC(=O)C=C[C@]4(C)[C@@]3(F)[C@@H](O)C[C@@]21C
3.06 | CCC(=O)OCC(=O)[C@@]1(O)[C@@H](C)C[C@H]2[C@@H]3CCC4=CC(=O)C=C[C@]4(C)[C@@]3(F)[C@@H](O)C[C@@]21C
2.61 | C[C@H]1C[C@H]2[C@@H]3CCC4=CC(=O)C=C[C@]4(C)[C@@]3(F)C(=O)C[C@]2(C)[C@@]1(O)C(=O)CCl
2.48 | C[C@H]1C[C@H]2[C@@H]3CCC4=CC(=O)C=C[C@]4(C)[C@@]3(F)[C@@H](O)C[C@]2(C)[C@@]1(O)C(=O)CCl
3.55 | CCC(=O)O[C@]1(C(=O)CBr)[C@@H](C)C[C@H]2[C@@H]3CCC4=CC(=O)C=C[C@]4(C)[C@@]3(F)C(=O)C[C@@]21C
3.87 | CCCCC(=O)OCC(=O)[C@@]1(O)[C@@H](C)C[C@H]2[C@@H]3CCC4=CC(=O)C=C[C@]4(C)[C@@]3(F)[C@@H](O)C[C@@]21C
3.63 | CCCC(=O)O[C@]1(C(=O)CCl)[C@@H](C)C[C@H]2[C@@H]3CCC4=CC(=O)C=C[C@]4(C)[C@@]3(F)[C@@H](O)C[C@@]21C
2.35 | CC(=O)[C@@]1(O)[C@@H](C)C[C@H]2[C@@H]3CCC4=CC(=O)C=C[C@]4(C)[C@@]3(F)[C@@H](O)C[C@@]21C
3.55 | CCCC(=O)OCC(=O)C1(O)C(C)CC2C3CCC4=CC(=O)C=CC4(C)C3(F)C(O)CC21C (centres undefined)
1.51 | C[C@]12C=CC(=O)C=C1CC[C@H]1[C@@H]3CC[C@](O)(C(=O)CO)[C@@]3(C)C[C@H](O)[C@@]12F
